{
  "source": "patent US20250002435A1",
  "about": "“ARYLATED FENCHONE DERIVATIVES, COMPOSITIONS COMPRISING THEM, PROCESSES FOR THEIR PREPARATION AND USES THEREOF” (priority 2021, published 2025)",
  "key": {"TNFα": {"test_system": "TNFα", "assay": "serum TNFα ELISA 24 h after zymosan injection", "type": "in vivo, mouse", "details": "25 mg/kg, serum 24 h after zymosan", "method": "Blood was collected 24 h after zymosan injection, and the sera were assayed for TNFα using a mouse TNFα ELISA kit (R&D Systems, Minneapolis, MN, USA), according to the manufacturer's instructions."}, "[1]": {"test_system": "medial meniscal tear (MMT) post-traumatic OA", "assay": "rat MMT model, histopathology of medial tibial joint 28 days post MMT", "type": "in vivo", "details": "for osteophyte measurements and scores: vs vehicle", "method": "(§1) The rat OA model employed was surgically-induced medial meniscal tear (MMT), wherein rats were anesthetized with Isoflurane (VetOne, catalogue No. 502017), and the right knee area was prepared for surgery. A skin incision was made over the medial aspect of the knee, and the medial collateral ligament was exposed by blunt dissection and then transected. The medial meniscus was cut through the full thickness to simulate a complete tear. Skin and subcutis were closed with 4-0 Coated Vicryl (polyglactin 910) Violet Braided Suture (Ethicon, catalogue No. J399H), and slight hand pressure was applied to the wound for approximately 3 minutes for hemostasis. Subcutaneous (SC) dose of buprenorphine (0.05 mg/kg) administered after the animal awakened post-surgery. Rats were weighed daily on study days −1 through 7 and again on days 14, 21, and 28 (prior to necropsy). […] The animals were euthanized for necropsy 28 days post-surgery, following Isoflurane anesthesia, and bled to exsanguination followed by bilateral pneumothorax.\nRight knees were collected from all animals and trimmed of muscle and patellae. The trimmed joints were placed in 10% neutral buffered formalin (NBF) for histologic processing and evaluation. Samples were fixed for 3 days in 4% paraformaldehyde and decalcified for 21 days in 10% EDTA, pH=7.5. Then following dehydration in a graded series of ethanol washes, joints were embedded in paraffin and sectioned to 7 μm slices, following trimming off 1 mm until the tibiofemoral compartments are fully observed. Sections were obtained from each knee and stained with toluidine blue (0.04% in 0.2 M acetate buffer, Ph=4.0), based on a modified version of the methods used in Schmitz, et al. (2010), (11). Histopathology was carried out using an ocular micrometer. The following structural histological characterization was carried out:\nRegional differences across the tibial plateau were taken into consideration by dividing each section into three zones: (1) outside, (2) middle, and (3) inside. In the surgical OA model, the outside (zone-1) and middle (zone-2) thirds are most severely affected, and milder changes are present on the inside third (zone 3). When zones were scored individually, scores were assigned based on percent area of the zone affected. General cartilage degeneration including chondrocyte death/loss, proteoglycan (PG) loss, and collagen loss or fibrillation. Zones were scored individually (0-5; 5 representing sever damage; SD3), and a sum of all three zones was calculated (termed “Total Joint scores”).\nThe zone related cartilage depth is calculated from the projected articular surface tot the tidemark. Reduced ratios embody less detected cartilage width vs projected cartilage with area, per zone.\nOsteophyte thickness (tidemark to furthest point extending toward synovium) was measured and scored according to a range from 0-5, as in SD4.\nDamage to the calcified cartilage layer and subchondral bone was scored using the criteria in SD5. Generally damage was considered as invagination of deep zone cartilage into the subchondral bone layer.\n[…] Descriptions of other changes (typically fibrosis, or acute inflammation/neutrophil infiltration extending into the lateral compartment usually associated with IA treatments) were also provided, if present."}, "[2]": {"test_system": "medial meniscal tear (MMT) post-traumatic OA", "assay": "rat medial meniscal tear (MMT) model, body weight and dynamic weight bearing", "type": "in vivo", "method": "Initially, the required amount of HU308 dissolved in ethanol followed by addition of […] with vigorous mechanical agitation to form viscous micelle solution. Finally, the micelle solution was diluted in ice cold saline for injection or culture assays. Vehicle solution consisted of ethanol, cremophor and saline at 1:1:18 ratio. For intra-articular (IA) dosing 50 μL was injected into the tibiofemoral joint, at two doses; 8 and 24 μg/mL. Vehicle control contained 1:1:18 ethanol/Cremophor/saline, while positive control was of IA administered 60 μg/mL FGF-18 (R&D Systems, catalogue No. 8988-F18-050, lot No. BVE0521071) for IA dosing at 50 μL/knee.\nas §1"}},
  "data": [
    {"smiles": "CCCCCCC(C)(C)c1cc(OC)c([C@]2(O)C3(C)CCC(C3)C2(C)C)c(OC)c1", "note": "(some centres unmarked) [Compound 1d, 2-(2,6′-dimethoxy-4′-(2″-methyloctan-2″-yl)phenyl)-1,3,3-trimethyl-bicyclo[2.2.1]heptan-2-ol]", "values": [
      {"measurement": "levels of TNF-α", "setting": "TNFα", "value": "reduced significantly"},
      {"measurement": "mean zonal depth ratios", "setting": "[1]; 1D high dose 24 μg/mL IA", "value": "reduced depth ratios"},
      {"measurement": "zone 3 cartilage degeneration score", "setting": "[1]; 1D high dose 24 μg/mL IA", "value": "less degeneration scores which were statistically significant"},
      {"measurement": "total zonal cartilage degeneration scores", "setting": "[1]; 1D high dose 24 μg/mL IA, vs 1D low dose and Vehicle", "value": "significantly reduced degenerative scores"},
      {"measurement": "osteophyte measurements and scores", "setting": "[1]; 1D high dose 24 μg/mL IA", "value": "didn't display any differences"},
      {"measurement": "synovitis scores", "setting": "[1]; 1D low dose 8 μg/mL IA", "value": "higher"},
      {"measurement": "zone 3 cartilage degeneration score", "setting": "[1]; 1D low dose 8 μg/mL IA", "value": "less degeneration scores which were statistically significant"},
      {"measurement": "osteophyte measurements and scores", "setting": "[1]; 1D low dose 8 μg/mL IA", "value": "didn't display any differences"},
      {"measurement": "dynamic weight bearing, left to right load bearing", "setting": "[2]; 1D high dose 24 μg/mL IA", "value": "statistically insignificant levels vs sham and vehicle"},
      {"measurement": "change in rat weight from 4 days to 28 days post MMT", "setting": "[2]; 1D high dose 24 μg/mL IA, vs Vehicle and FGF18 groups", "value": "slight but significant increase"},
      {"measurement": "dynamic weight bearing, left to right load bearing", "setting": "[2]; 1D low dose 8 μg/mL IA", "value": "increased left to right lad bearing vs sham"}
    ]}
  ]
}
